This note sets out measurements from patent US20250154141A1 (University of Florida Research Foundation, Incorporated, priority 2021, published 2025).

Read-outs that look alike come from different tables or passages of the source.

In one assay the test system is RS4; 11. Put plainly: Cell viability assay (MTS) in RS4; 11 cells. The assay is classed as cell-based. The settings on record: Homo sapiens, read-out: Anti-Cancer Activity IC50 (48 hr) RS4, 11. As to the method: (§1) Acute lymphoblastic leukemia cells (MOLT-4 and RS4; 11) were incubated with increasing concentrations of Bcl-xL degraders for 48 h. Cell viability was measured by tetrazolium-based MTS assay.

In the next assay the test system is MOLT-4. In words: Cell viability assay (MTS) in MOLT-4 cells. The assay is classed as cell-based. Conditions: Homo sapiens, read-out: Anti-Cancer Activity IC50 (48 hr) MOLT-4. As to the method: as §1

On to `Cc1ncsc1-c1ccc([C@H](C)NC(=O)[C@@H]2C[C@@H](O)CN2C(=O)[C@@H](NC(=O)COCCOCc2cn(CC3(C)CCC(c4ccc(Cl)cc4)=C(CN4CCN(c5ccc(C(=O)NS(=O)(=O)c6ccc(N[C@H](CCN7CCOCC7)CSc7ccccc7)c(S(=O)(=O)C(F)(F)F)c6)cc5)CC4)C3)nn2)C(C)(C)C)cc1` (stereo partly drawn) [Compound 21, (2S,4R)-1-((2S)-2-(2-(2-((1-((4′-chloro-4-methyl-6-((4-(4-(((4-(((R)-4-morpholino-1-(phenylthio)butan-2-yl)amino)-3-((trifluoromethyl)sulfonyl)phenyl)sulfonyl)carbamoyl)phenyl)piperazin-1-yl)methyl)-2,3,4,5-tetrahydro-[1,1′-biphenyl]-4-yl)methyl)-1H-1,2,3-triazol-4-yl)methoxy)ethoxy)acetamido)-3,3-dimethylbutanoyl)-4-hydroxy-N—((S)-1-(4-(4-methylthiazol-5-yl)phenyl)ethyl)pyrrolidine-2-carboxamide], for which the IC50 in the assay with RS4; 11 (RS4-11, Table 2, 48 hr, MTS) lay within 20 to 100 nM; with MOLT-4 (MOLT-4, Table 2, 48 hr, MTS) it was 100 to 500 nM.

For the molecule `Cc1ncsc1-c1ccc([C@H](C)NC(=O)[C@@H]2C[C@@H](O)CN2C(=O)[C@@H](NC(=O)CCCCCOCc2cn(CCCC(=O)NCC3(C)CCC(c4ccc(Cl)cc4)=C(CN4CCN(c5ccc(C(=O)NS(=O)(=O)c6ccc(N[C@H](CCN7CCOCC7)CSc7ccccc7)c(S(=O)(=O)C(F)(F)F)c6)cc5)CC4)C3)nn2)C(C)(C)C)cc1` (some centres unmarked) [Compound 22], the IC50 in the assay with RS4; 11 (RS4-11, Table 2, 48 hr, MTS) lay in the range of 100 to 500 nM; in the assay with MOLT-4 (MOLT-4, Table 2, 48 hr, MTS) it was 100 to 500 nM.

Turning to `Cc1ncsc1-c1ccc([C@H](C)NC(=O)[C@@H]2C[C@@H](O)CN2C(=O)[C@@H](NC(=O)COCCOCc2cn(CCCC(=O)NCC3(C)CCC(c4ccc(Cl)cc4)=C(CN4CCN(c5ccc(C(=O)NS(=O)(=O)c6ccc(N[C@H](CCN7CCOCC7)CSc7ccccc7)c(S(=O)(=O)C(F)(F)F)c6)cc5)CC4)C3)nn2)C(C)(C)C)cc1` (some centres unmarked) [Compound 23], the IC50 in the assay on RS4; 11 (RS4-11, Table 2, 48 hr, MTS) is 500 to 10000 nM; with MOLT-4 (MOLT-4, Table 2, 48 hr, MTS) it was 500 to 10000 nM.

Regarding `Cc1ncsc1-c1ccc([C@H](C)NC(=O)[C@@H]2C[C@@H](O)CN2C(=O)[C@@H](NC(=O)CN2CCN(CC(=O)N3CCN(CC4(C)CCC(c5ccc(Cl)cc5)=C(CN5CCN(c6ccc(C(=O)NS(=O)(=O)c7ccc(N[C@H](CCN8CCOCC8)CSc8ccccc8)c(S(=O)(=O)C(F)(F)F)c7)cc6)CC5)C4)CC3)CC2)C(C)(C)C)cc1` (some centres unmarked) [Compound 25], the IC50 is under 20 nM in the assay on RS4; 11 (RS4-11, Table 2, 48 hr, MTS) and under 20 nM in the assay with MOLT-4 (MOLT-4, Table 2, 48 hr, MTS).

Take `Cc1ncsc1-c1ccc([C@H](C)NC(=O)[C@@H]2C[C@@H](O)CN2C(=O)[C@@H](NC(=O)CC2CCN(CC(=O)N3CCN(CC4(C)CCC(c5ccc(Cl)cc5)=C(CN5CCN(c6ccc(C(=O)NS(=O)(=O)c7ccc(N[C@H](CCN8CCOCC8)CSc8ccccc8)c(S(=O)(=O)C(F)(F)F)c7)cc6)CC5)C4)CC3)CC2)C(C)(C)C)cc1` (some centres unmarked) [Compound 27]: the IC50 in the assay on RS4; 11 (RS4-11, Table 2, 48 hr, MTS) lay within 100 to 500 nM; in the assay with MOLT-4 (MOLT-4, Table 2, 48 hr, MTS) it was 100 to 500 nM.

Regarding `Cc1ncsc1-c1ccc([C@H](C)NC(=O)[C@@H]2C[C@@H](O)CN2C(=O)[C@@H](NC(=O)CCCCCCC(=O)N2CCN(CCC3(C)CCC(c4ccc(Cl)cc4)=C(CN4CCN(c5ccc(C(=O)NS(=O)(=O)c6ccc(N[C@H](CCN7CCOCC7)CSc7ccccc7)c(S(=O)(=O)C(F)(F)F)c6)cc5)CC4)C3)CC2)C(C)(C)C)cc1` (stereo partly drawn) [Compound 28, (2S,4R)-1-((2S)-2-(8-(4-(2-(4′-chloro-4-methyl-6-((4-(4-(((4-(((R)-4-morpholino-1-(phenylthio)butan-2-yl)amino)-3-((trifluoromethyl)sulfonyl)phenyl)sulfonyl)carbamoyl)phenyl)piperazin-1-yl)methyl)-2,3,4,5-tetrahydro-[1,1′-biphenyl]-4-yl)ethyl)piperazin-1-yl)-8-oxooctanamido)-3,3-dimethylbutanoyl)-4-hydroxy-N—((S)-1-(4-(4-methylthiazol-5-yl)phenyl)ethyl)pyrrolidine-2-carboxamide], the IC50 was in the range of 20 to 100 nM in the assay with RS4; 11 (RS4-11, Table 2, 48 hr, MTS) and 100 to 500 nM in the assay with MOLT-4 (MOLT-4, Table 2, 48 hr, MTS).

With `Cc1ncsc1-c1ccc([C@H](C)NC(=O)[C@@H]2C[C@@H](O)CN2C(=O)[C@@H](NC(=O)CCCCCCCC(=O)N2CCN(CCC3(C)CCC(c4ccc(Cl)cc4)=C(CN4CCN(c5ccc(C(=O)NS(=O)(=O)c6ccc(N[C@H](CCN7CCOCC7)CSc7ccccc7)c(S(=O)(=O)C(F)(F)F)c6)cc5)CC4)C3)CC2)C(C)(C)C)cc1` (stereo partly drawn) [Compound 29, (2S,4R)-1-((2S)-2-(9-(4-(2-(4′-chloro-4-methyl-6-((4-(4-(((4-(((R)-4-morpholino-1-(phenylthio)butan-2-yl)amino)-3-((trifluoromethyl)sulfonyl)phenyl)sulfonyl)carbamoyl)phenyl)piperazin-1-yl)methyl)-2,3,4,5-tetrahydro-[1,1′-biphenyl]-4-yl)ethyl)piperazin-1-yl)-9-oxononanamido)-3,3-dimethylbutanoyl)-4-hydroxy-N—((S)-1-(4-(4-methylthiazol-5-yl)phenyl)ethyl)pyrrolidine-2-carboxamide], the IC50 in the assay with RS4; 11 (RS4-11, Table 2, 48 hr, MTS) fell in the range of 20 to 100 nM; in the assay on MOLT-4 (MOLT-4, Table 2, 48 hr, MTS), 100 to 500 nM.

Consider `Cc1ncsc1-c1ccc([C@H](C)NC(=O)[C@@H]2C[C@@H](O)CN2C(=O)[C@@H](NC(=O)CCCCCCCCC(=O)N2CCN(CCC3(C)CCC(c4ccc(Cl)cc4)=C(CN4CCN(c5ccc(C(=O)NS(=O)(=O)c6ccc(N[C@H](CCN7CCOCC7)CSc7ccccc7)c(S(=O)(=O)C(F)(F)F)c6)cc5)CC4)C3)CC2)C(C)(C)C)cc1` (stereo partly drawn) [Compound 30, (2S,4R)-1-((2S)-2-(10-(4-(2-(4′-chloro-4-methyl-6-((4-(4-(((4-(((R)-4-morpholino-1-(phenylthio)butan-2-yl)amino)-3-((trifluoromethyl)sulfonyl)phenyl)sulfonyl)carbamoyl)phenyl)piperazin-1-yl)methyl)-2,3,4,5-tetrahydro-[1,1′-biphenyl]-4-yl)ethyl)piperazin-1-yl)-10-oxodecanamido)-3,3-dimethylbutanoyl)-4-hydroxy-N—((S)-1-(4-(4-methylthiazol-5-yl)phenyl)ethyl)pyrrolidine-2-carboxamide], for which the IC50 in the assay with RS4; 11 (RS4-11, Table 2, 48 hr, MTS) lay in the range of 20 to 100 nM; in the assay with MOLT-4 (MOLT-4, Table 2, 48 hr, MTS), 100 to 500 nM.

As to `Cc1ncsc1-c1ccc([C@H](C)NC(=O)[C@@H]2C[C@@H](O)CN2C(=O)[C@@H](NC(=O)CN2C3CC2CN(CC(=O)N2CCN(CC4(C)CCC(c5ccc(Cl)cc5)=C(CN5CCN(c6ccc(C(=O)NS(=O)(=O)c7ccc(N[C@H](CCN8CCOCC8)CSc8ccccc8)c(S(=O)(=O)C(F)(F)F)c7)cc6)CC5)C4)CC2)C3)C(C)(C)C)cc1` (some centres unmarked) [Compound 31], the IC50 was in the range of 100 to 500 nM in the assay on RS4; 11 (RS4-11, 48 h) and 100 to 500 nM in the assay with MOLT-4 (MOLT-4, 48 h).

Take `Cc1ncsc1-c1ccc([C@H](C)NC(=O)[C@@H]2C[C@@H](O)CN2C(=O)[C@@H](NC(=O)CCCCCCC(=O)N2CCN(CC3(C)CCC(c4ccc(Cl)cc4)=C(CN4CCN(c5ccc(C(=O)NS(=O)(=O)c6ccc(N[C@H](CCN7CCOCC7)CSc7ccccc7)c([N+](=O)[O-])c6)cc5)CC4)C3)CC2)C(C)(C)C)cc1` (stereo partly drawn) [Compound 33, (2S,4R)-1-((2S)-2-(8-(4-((4′-chloro-4-methyl-6-((4-(4-(((4-(((R)-4-morpholino-1-(phenylthio)butan-2-yl)amino)-3-nitrophenyl)sulfonyl)carbamoyl)phenyl)piperazin-1-yl)methyl)-2,3,4,5-tetrahydro-[1,1′-biphenyl]-4-yl)methyl)piperazin-1-yl)-8-oxooctanamido)-3,3-dimethylbutanoyl)-4-hydroxy-N—((S)-1-(4-(4-methylthiazol-5-yl)phenyl)ethyl)pyrrolidine-2-carboxamide]: the IC50 with RS4; 11 (RS4-11, Table 2, 48 hr, MTS) is under 20 nM; in the assay on MOLT-4 (MOLT-4, Table 2, 48 hr, MTS), 20 to 100 nM.

The IC50 is the concentration that inhibits the measured activity by half.
